Source: ChEMBL document CHEMBL4414581, “Cytotoxic Limonoids from the Twigs and Leaves of Toona ciliata” (J Nat Prod, 2019)

Columns and labels:
A549 = assay: Cytotoxicity against human A549 cells assessed as reduction in cell viability measured after 48 hrs by MTS assay; type: functional, cell-based; conditions: A549, 48 h
HL-60 = assay: Cytotoxicity against human HL60 cells assessed as reduction in cell viability measured after 48 hrs by MTS assay; type: functional, cell-based; conditions: HL-60, 48 h
SW480 = assay: Cytotoxicity against human SW480 cells assessed as reduction in cell viability measured after 48 hrs by MTS assay; type: functional, cell-based; conditions: SW480, 48 h
MCF7 = assay: Cytotoxicity against human MCF7 cells assessed as reduction in cell viability measured after 48 hrs by MTS assay; type: functional, cell-based; conditions: MCF7, 48 h
[1] = Cytotoxicity against human […] cells assessed as reduction in cell viability measured after 48 hrs by MTS assay; type: functional, cell-based
[2] = Cytotoxicity against mouse RAW264.7 cells assessed as cell viability measured after 48 hrs by MTS assay relative to control; type: cell-based; conditions: read-out: Activity
RAW264.7 = assay: Anti-inflammatory activity in mouse RAW264.7 cells assessed as inhibition of LPS-induced nitric oxide production measured after 18 hrs by Griess assay; type: functional, cell-based; conditions: RAW264.7, 18 h

Structure (SMILES)	IC50 (A549)	IC50 (HL-60)	IC50 (SW480)	IC50 (MCF7)	IC50 [1]	viability at 48 h [2]	IC50 (RAW264.7)
CC(=O)O[C@H]1[C@H]2O[C@H]3C[C@@H](O)[C@]4(C)OC(=O)[C@H](O)[C@]4(O)[C@@]3(C)[C@@H]2[C@@](C)(O)[C@@]23O[C@@H]2C[C@@H](c2ccoc2)[C@]13C	> 10 µM	1.6 µM	4 µM	3.7 µM	> 10 µM		
CC1(C)OC(=O)C=C[C@]2(C)[C@H]3CC[C@@]4(C)[C@H](C5=CC(=O)NC5=O)C[C@H]5O[C@]54[C@]3(C)C(=O)C[C@@H]12	> 10 µM	> 10 µM	> 10 µM	> 10 µM	> 10 µM	> 100%	28.3 µM
C[C@]12[C@H](C[C@@H](O)[C@]3(C)OC(=O)[C@H](O)[C@]13O)O[C@@H]1C[C@@]3(C)[C@H](c4ccoc4)C[C@H]4O[C@]43[C@](C)(O)[C@H]12	> 10 µM	0.6 µM	0.9 µM	0.9 µM	> 10 µM		
C[C@]12[C@H](CC(=O)[C@]3(C)OC(=O)[C@H](O)[C@]13O)O[C@H]1[C@H]2[C@@](C)(O)[C@@]23O[C@@H]2C[C@@H](c2ccoc2)[C@]3(C)[C@H]1O	> 10 µM	0.9 µM	2.5 µM	3 µM	> 10 µM		
CO[C@@H]1C=C([C@@H]2C[C@H]3O[C@@]34[C@@]2(C)C[C@H]2O[C@H]3C[C@H](O)[C@]5(C)OC(=O)[C@H](O)[C@]5(O)[C@@]3(C)[C@@H]2[C@@]4(C)O)C(=O)O1	> 10 µM	> 10 µM	> 10 µM	> 10 µM	> 10 µM		
CC1(C)C(=O)C=C[C@]2(C)C3=CC[C@@]4(C)[C@H](C5=CCNC5=O)C[C@H]5O[C@]54[C@]3(C)C(=O)C[C@@H]12	> 10 µM	> 10 µM	> 10 µM	> 10 µM	> 10 µM		
CC(=O)O[C@@H]1C[C@]2(C)[C@@H](C(=O)C[C@H]2c2ccoc2)[C@]2(C)[C@H](O)C[C@H]3C(C)(C)OC(=O)C=C[C@]3(C)[C@@H]12	> 10 µM	> 10 µM	> 10 µM	> 10 µM	> 10 µM		
CO[C@@H]1C=C([C@@H]2C[C@H]3O[C@@]34[C@@]2(C)CC[C@@H]2[C@@]3(C)C=CC(=O)OC(C)(C)[C@@H]3CC(=O)O[C@]24C)C(=O)O1	> 10 µM	> 10 µM	> 10 µM	> 10 µM	> 10 µM		
CO[C@@H]1C=C([C@@H]2C[C@H]3O[C@@]34[C@@]2(C)C[C@H]2O[C@@]3(O)C=C[C@]5(C)OC(=O)[C@H](O)[C@]5(O)[C@@]3(C)[C@@H]2[C@@]4(C)O)C(=O)O1	> 10 µM	> 10 µM	> 10 µM	> 10 µM	> 10 µM		
C[C@]12[C@H](C[C@H](O)[C@]3(C)OC(=O)[C@H](O)[C@]13O)O[C@@H]1C[C@@]3(C)[C@H](c4ccoc4)C[C@H]4O[C@]43[C@](C)(O)[C@H]12	> 10 µM	> 10 µM	> 10 µM	> 10 µM	> 10 µM		
C[C@]12[C@H](c3ccoc3)C[C@H]3O[C@]31[C@](C)(O)[C@@H]1[C@H](O[C@@]3(O)C=C[C@]4(C)OC(=O)[C@H](O)[C@]4(O)[C@@]13C)[C@@H]2O	> 10 µM	> 10 µM	> 10 µM	> 10 µM	> 10 µM		
CC1(C)OC(=O)C=C[C@]2(C)[C@H]3[C@H](O)C[C@@]4(C)[C@H](c5ccoc5)C[C@H]5O[C@]54[C@]3(C)C(=O)C[C@@H]12	> 10 µM	> 10 µM	> 10 µM	> 10 µM	> 10 µM		
CC(=O)O[C@@H]1C[C@@H]2O[C@@H]3C[C@@]4(C)[C@H](c5ccoc5)C[C@H]5O[C@]54[C@](C)(O)[C@H]3[C@]2(C)[C@@]2(O)[C@@H](O)C(=O)O[C@@]12C	> 10 µM	> 10 µM	3.7 µM	2.4 µM	> 10 µM		
CC(=O)O[C@H]1[C@@H](OC(C)=O)[C@]2(C)[C@H]([C@H](O)C[C@@]3(C)[C@H](c4ccoc4)C[C@H]4O[C@@]423)[C@@]2(C)C=CC(=O)OC(C)(C)[C@H]12	> 10 µM	> 10 µM	> 10 µM	> 10 µM	> 10 µM		
CC(=O)O[C@H]1C(=O)O[C@@]2(C)[C@H](OC(C)=O)C[C@@H]3O[C@@H]4C[C@@]5(C)[C@H](c6ccoc6)C[C@H]6O[C@]65[C@](C)(O)[C@H]4[C@]3(C)[C@@]12O	> 10 µM	> 10 µM	2.3 µM	2.1 µM	> 10 µM		
C[C@]12[C@H](C[C@H](O)[C@]3(C)OC(=O)[C@H](O)[C@]13O)O[C@H]1[C@H]2[C@@](C)(O)[C@@]23O[C@@H]2C[C@@H](c2ccoc2)[C@]3(C)[C@H]1O	> 10 µM	> 10 µM	> 10 µM	> 10 µM	> 10 µM		
CC1(C)OC(=O)C=C[C@]2(C)[C@H]3CC[C@]4(C)[C@@H](C(=O)C[C@H]4c4ccoc4)[C@]3(C)[C@H](O)C[C@@H]12	> 10 µM	> 10 µM	> 10 µM	> 10 µM	> 10 µM		
CO[C@]12C=C[C@]3(C)OC(=O)[C@H](O)[C@]3(O)[C@@]1(C)[C@H]1[C@@H](C[C@@]3(C)[C@H](c4ccoc4)C[C@H]4O[C@]43[C@]1(C)O)O2	> 10 µM	> 10 µM	> 10 µM	> 10 µM	> 10 µM		
C[C@]12[C@H]3[C@@H](C[C@@]4(C)[C@H](C5=CCNC5=O)C[C@H]5O[C@]54[C@]3(C)O)O[C@@]1(O)C=C[C@]1(C)OC(=O)[C@H](O)[C@]21O	> 10 µM	> 10 µM	> 10 µM	> 10 µM	> 10 µM		
CC1(C)OC(=O)C=C[C@]2(C)[C@H]3CC[C@@]4(C)[C@H](C5=CCNC5=O)C[C@H]5O[C@]54[C@]3(C)OC(=O)C[C@@H]12	> 10 µM	> 10 µM	> 10 µM	> 10 µM	> 10 µM		
CC1(C)OC(=O)C=C[C@]2(C)[C@H]3C[C@H](O)[C@@]4(C)[C@H](c5ccoc5)C[C@H]5O[C@]54[C@]3(C)OC(=O)C[C@@H]12	> 10 µM	> 10 µM	> 10 µM	> 10 µM	> 10 µM		
C[C@]12[C@H]3[C@@H](C[C@@]4(C)[C@H](c5ccoc5)C[C@H]5O[C@]54[C@]3(C)O)O[C@@]1(O)C=C[C@]1(C)OC(=O)[C@H](O)[C@]21O	> 10 µM	2.3 µM	1.5 µM	2.1 µM	> 10 µM		
C[C@]12[C@H](CC(=O)[C@]3(C)OC(=O)[C@H](O)[C@]13O)O[C@@H]1C[C@@]3(C)[C@H](c4ccoc4)C[C@H]4O[C@]43[C@](C)(O)[C@H]12	> 10 µM	0.8 µM	2.3 µM	4 µM	> 10 µM		
